Experimental data from patent US20150197536A1, “COMPOUNDS REDUCING THE PRODUCTION OF SORBITOL IN THE EYE AND METHODS OF USING THE SAME” (THE REGENTS OF THE UNIVERSITY OF COLORADO, a body corporate, priority 2012, published 2015).

Legend:
[1] = system: diabetic cataracts; conditions: active ingredient of gooseberry extracts; Puppala et al. 2012; cited from earlier work
[2] = target: AKR1B10 (Homo sapiens, UniProt O60218); experiment: Aldo keto reductase specificity, AKR1B10; type: biochemical; conditions: FIG. 3B; result in words
AKR1B10, sequence (O60218 whole entry, species assumed): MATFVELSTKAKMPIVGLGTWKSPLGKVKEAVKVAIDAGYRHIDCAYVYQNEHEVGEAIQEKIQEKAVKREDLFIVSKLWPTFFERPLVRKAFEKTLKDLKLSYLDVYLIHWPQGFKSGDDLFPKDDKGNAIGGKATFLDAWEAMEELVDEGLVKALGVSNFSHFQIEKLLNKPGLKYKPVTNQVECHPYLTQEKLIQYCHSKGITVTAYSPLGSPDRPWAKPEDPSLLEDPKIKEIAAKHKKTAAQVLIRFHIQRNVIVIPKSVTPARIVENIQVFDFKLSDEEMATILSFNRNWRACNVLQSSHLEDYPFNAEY

[3] = target: T1, AKR1A1 (Homo sapiens, UniProt P14550); experiment: Aldo keto reductase specificity, AKR1A1; type: biochemical; conditions: FIG. 3B; result in words
T1 sequence (P14550 1-325): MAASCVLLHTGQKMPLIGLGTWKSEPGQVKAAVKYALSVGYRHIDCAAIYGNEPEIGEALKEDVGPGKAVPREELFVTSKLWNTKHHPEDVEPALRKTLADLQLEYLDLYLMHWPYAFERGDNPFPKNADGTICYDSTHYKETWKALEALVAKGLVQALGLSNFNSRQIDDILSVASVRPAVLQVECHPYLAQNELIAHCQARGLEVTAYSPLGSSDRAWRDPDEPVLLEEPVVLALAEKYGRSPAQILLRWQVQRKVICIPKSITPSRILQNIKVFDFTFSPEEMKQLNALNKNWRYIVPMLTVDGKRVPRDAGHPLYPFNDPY

[4] = system: Raw264.7 murine macrophages; experiment: Sorbitol accumulation in Raw264.7 murine macrophages; type: cell-based; conditions: FIG. 4A/5A
[5] = system: lenses of PAR40 transgenic mice that express human AKR1B1; experiment: Sorbitol accumulation in lenses of PAR40 transgenic mice cultured ex vivo; type: cell-based; conditions: PAR40 transgenic mice expressing human AKR1B1; hyperglycemic conditions; lenses excised and cultured ex vivo; FIG. 4B/5B

SMILES	efficacy in slowing the progression of diabetic cataracts [1]	specificity for AKR1B1 over AKR1B10 [2]	specificity for AKR1B1 over AKR1A1 [3]	sorbitol accumulation [4]	sorbitol accumulation [5]
O=C(O[C@@H]1O[C@H](CO)[C@@H](O)[C@H](O)[C@H]1O)c1cc(O)c(O)c(O)c1 [BGG, 1-O-(3,4,5-trihydroxybenzoyl)-β-D-glucopyranose]	efficacy in slowing the progression of diabetic cataracts	–	–	–	–
O=C(N[C@@H]1O[C@H](CO)[C@@H](O)[C@H](O)[C@H]1O)c1cc(O)c(O)c(O)c1 [BGA, 1-deoxy-1-(3,4,5-trihydroxybenzamido)-β-D-glucopyranose]	–	displays specificity for AKR1B1 over other aldo keto reductase enzymes	displays specificity for AKR1B1 over other aldo keto reductase enzymes	blocks sorbitol accumulation	blocks sorbitol accumulation
